Results published in patent US20240099214A1, “PLANT DEFENCE GENE EXPRESSION” (UPL Corporation Limited, priority 2021, published 2024).

Columns and labels:
[1] = system: AP2-like-ethylene-responsive transcription factor (gene 4, Solyc11g072600.1); test: qRT-PCR expression of gene 4 in tomato leaves; type: in vivo, Tomato ecotype corbarino; set-up: key: relative expression normalized to a-tubulin housekeeping gene
Procedure: (§1) Tomato ecotype “corbarino” reported to be susceptible to TSWV infection was used in the experiment. Plants were grown in pots in a climatic chamber with a photoperiod of 16/8 hour at 25° C.
(§2) The viral strain (TSWV PV PV-0393) was utilized in the experiment. The virus was mechanically inoculated and propagated on tomato “corbarino”. The inoculum was prepared in an ice-cooled mortar grounding 1 gr of infected tomato tissue in 10 ml of Na-phosphate buffer 0.01M. The fresh prepared inoculum was stored in ice before use. Tomato plants at BBCH16 were dusted with Carborundum 600 mesh and selected leaves were rubbed with some droplets of inoculum. After 5 min. plants were sprayed with sterile water to remove the excess of inoculum and preserve the cell turgor.
(§3) Four treatments were compared: i) Mock inoculated; ii) TSWV; iii) 0.25% Laminarin; iv) 0.25% Laminarin+TSWV. In the last treatment the virus was inoculated 24 hrs after the laminarin application.
(§4) Total RNA was extracted from systemic infected tomato leaves by using the Quick-RNA Plant Kit (Zymo Research) following the manufacturer instructions. The extractions were carried out using three plants after 12 h, 24 h, 48 h, 72 h, 7 days after inoculation. Leaves were instantly frozen in liquid nitrogen after cutting to avoid any deterioration of the sample as well as any defense reaction. The RNA concentration was quantified by measuring the absorbance at 260 nm using a Nanodrop 2000 (Thermofisher). The purity of all of the RNA samples was assessed at an absorbance ratio of OD260/280 and OD260/230, while its structural integrity was checked by agarose gel electrophoresis. Only high-quality RNA with OD 260/280 and OD 260/230>2 was used for subsequent steps. Single-stranded cDNA was synthesized from 1 μg of total RNA using an iScript™ Select cDNA Synthesis Kit and random hexamers as primers (Bio-Rad, Milan, Italy), according to the manufacturer's instructions. Three biological replicates were created from the 3 leaves collected to test 15 genes. Alpha tubulin was used as reference gene.
(§5) qPCR reactions were performed with BioRad (Applied Biosystems, Foster City, CA, USA) using SYBR R Green. Each reaction was performed in 20 μl containing 10 μl of 2× Power SYBR Green PCR Master Mix (Life Technologies), 0.2-0.3 μM primers and cDNA samples diluted 1:20. Each qPCR reaction was performed in triplicate. Reactions were run using the cycling parameter described previously (Reid et al., 2006) and the qPCR data were analyzed by the Ct method (Pfaffl, 2001). In order to analyze the qPCR data, a-tubulin gene was used as housekeeping to determine the relative expression level of the other genes analyzed in this work. For the determination of qPCR efficiency of each primer pairs, a standard curve was performed using the following cDNA dilutions: 1:4, 1:16, 1:64; 1:256 and 1:1024. Every measurement was made in triplicate. The corresponding qPCR efficiencies (E) were calculated for every primer pair with the software 7300 System SDS software (Applied Biosystems, Foster City, CA, USA) according to the equation E=(10−1/slope−1)×100 (Rutledge and Stewart, 2008).
(§6) The significance of the differences between the gene expressions levels were compared by one-way ANOVA (p=0.01) and the means were separated by Tukey post-hoc test using SPSS ver.26 ([…]).

[2] = system: Pti6 (gene 15, U89257.1); test: qRT-PCR expression of gene 15 in tomato leaves; type: in vivo, Tomato ecotype corbarino; set-up: key: relative expression normalized to a-tubulin housekeeping gene
Procedure: as §1, §2, §3, §4, §5, §6

[3] = Gene_15, 12 hr, treatment Laminarin
[4] = Gene_15, 12 hr, treatment Laminarin + virus
[5] = Gene_15, 24 hr, treatment Laminarin
[6] = Gene_15, 24 hr, treatment Laminarin + virus
[7] = Gene_15, 48 hr, treatment Laminarin
[8] = Gene_15, 48 hr, treatment Laminarin + virus
[9] = Gene_15, 72 hr, treatment Laminarin
[10] = Gene_15, 72 hr, treatment Laminarin + virus

laminarin
RQ1 ([1]; 12 hr, Laminarin + virus): 12.523 | RQ2 ([1]; 12 hr, Laminarin + virus): 0.9104 | RQ3 ([1]; 12 hr, Laminarin + virus): 10.299 | RQ mean ([1]; 12 hr, Laminarin + virus): 10.642 | RQ1 ([1]; 12 hr, Laminarin alone): 0.9931 | RQ2 ([1]; 12 hr, Laminarin alone): 0.9090 | RQ3 ([1]; 12 hr, Laminarin alone): 0.7654 | RQ mean ([1]; 12 hr, Laminarin alone): 0.8892 | RQ1 ([1]; 24 hr, Laminarin + virus): 1.250 | RQ2 ([1]; 24 hr, Laminarin + virus): 1.754 | RQ3 ([1]; 24 hr, Laminarin + virus): 1.545 | RQ mean ([1]; 24 hr, Laminarin + virus): 1.516 | RQ1 ([1]; 24 hr, Laminarin alone): 1.744 | RQ2 ([1]; 24 hr, Laminarin alone): 1.728 | RQ3 ([1]; 24 hr, Laminarin alone): 1.516 | RQ mean ([1]; 24 hr, Laminarin alone): 1.662 | RQ1 ([1]; 48 hr, Laminarin + virus): 13.802 | RQ2 ([1]; 48 hr, Laminarin + virus): 15.313 | RQ3 ([1]; 48 hr, Laminarin + virus): 21.904 | RQ mean ([1]; 48 hr, Laminarin + virus): 17.006 | RQ1 ([1]; 48 hr, Laminarin alone): 15.231 | RQ2 ([1]; 48 hr, Laminarin alone): 15.784 | RQ3 ([1]; 48 hr, Laminarin alone): 37.709 | RQ mean ([1]; 48 hr, Laminarin alone): 22.908 | RQ1 ([1]; 72 hr, Laminarin + virus): 35.424 | RQ2 ([1]; 72 hr, Laminarin + virus): 26.180 | RQ3 ([1]; 72 hr, Laminarin + virus): 29.297 | RQ mean ([1]; 72 hr, Laminarin + virus): 30.301 | RQ1 ([1]; 72 hr, Laminarin alone): 25.807 | RQ2 ([1]; 72 hr, Laminarin alone): 30.148 | RQ3 ([1]; 72 hr, Laminarin alone): 26.311 | RQ mean ([1]; 72 hr, Laminarin alone): 27.422 | RQ1 [2, 3]: 10.060 | RQ2 [2, 3]: 10.254 | RQ3 [2, 3]: 12.879 | RQ mean [2, 3]: 11.065 | RQ1 [2, 4]: 12.002 | RQ2 [2, 4]: 16.131 | RQ3 [2, 4]: 13.764 | RQ mean [2, 4]: 13.966 | RQ1 [2, 5]: 13.129 | RQ2 [2, 5]: 21.363 | RQ3 [2, 5]: 13.388 | RQ mean [2, 5]: 15.960 | RQ1 [2, 6]: 15.392 | RQ2 [2, 6]: 14.812 | RQ3 [2, 6]: 12.195 | RQ mean [2, 6]: 14.133 | RQ1 [2, 7]: 32.421 | RQ2 [2, 7]: 0.8602 | RQ3 [2, 7]: 19.066 | RQ mean [2, 7]: 20.030 | RQ1 [2, 8]: 16.304 | RQ2 [2, 8]: 17.934 | RQ3 [2, 8]: 18.959 | RQ mean [2, 8]: 17.732 | RQ1 [2, 9]: 49.281 | RQ2 [2, 9]: 36.255 | RQ3 [2, 9]: 43.025 | RQ mean [2, 9]: 42.853 | RQ1 [2, 10]: 22.660 | RQ2 [2, 10]: 30.703 | RQ3 [2, 10]: 44.821 | RQ mean [2, 10]: 32.728
